One assay deals with T1, TNKS2 (Homo sapiens, UniProt Q9H2K2).
T1 construct: purchased BPS Bioscience, San Diego, USA 80572 (TNKS2 Histone Ribosylation Assay Kit)
T1 sequence (Q9H2K2 1-1166): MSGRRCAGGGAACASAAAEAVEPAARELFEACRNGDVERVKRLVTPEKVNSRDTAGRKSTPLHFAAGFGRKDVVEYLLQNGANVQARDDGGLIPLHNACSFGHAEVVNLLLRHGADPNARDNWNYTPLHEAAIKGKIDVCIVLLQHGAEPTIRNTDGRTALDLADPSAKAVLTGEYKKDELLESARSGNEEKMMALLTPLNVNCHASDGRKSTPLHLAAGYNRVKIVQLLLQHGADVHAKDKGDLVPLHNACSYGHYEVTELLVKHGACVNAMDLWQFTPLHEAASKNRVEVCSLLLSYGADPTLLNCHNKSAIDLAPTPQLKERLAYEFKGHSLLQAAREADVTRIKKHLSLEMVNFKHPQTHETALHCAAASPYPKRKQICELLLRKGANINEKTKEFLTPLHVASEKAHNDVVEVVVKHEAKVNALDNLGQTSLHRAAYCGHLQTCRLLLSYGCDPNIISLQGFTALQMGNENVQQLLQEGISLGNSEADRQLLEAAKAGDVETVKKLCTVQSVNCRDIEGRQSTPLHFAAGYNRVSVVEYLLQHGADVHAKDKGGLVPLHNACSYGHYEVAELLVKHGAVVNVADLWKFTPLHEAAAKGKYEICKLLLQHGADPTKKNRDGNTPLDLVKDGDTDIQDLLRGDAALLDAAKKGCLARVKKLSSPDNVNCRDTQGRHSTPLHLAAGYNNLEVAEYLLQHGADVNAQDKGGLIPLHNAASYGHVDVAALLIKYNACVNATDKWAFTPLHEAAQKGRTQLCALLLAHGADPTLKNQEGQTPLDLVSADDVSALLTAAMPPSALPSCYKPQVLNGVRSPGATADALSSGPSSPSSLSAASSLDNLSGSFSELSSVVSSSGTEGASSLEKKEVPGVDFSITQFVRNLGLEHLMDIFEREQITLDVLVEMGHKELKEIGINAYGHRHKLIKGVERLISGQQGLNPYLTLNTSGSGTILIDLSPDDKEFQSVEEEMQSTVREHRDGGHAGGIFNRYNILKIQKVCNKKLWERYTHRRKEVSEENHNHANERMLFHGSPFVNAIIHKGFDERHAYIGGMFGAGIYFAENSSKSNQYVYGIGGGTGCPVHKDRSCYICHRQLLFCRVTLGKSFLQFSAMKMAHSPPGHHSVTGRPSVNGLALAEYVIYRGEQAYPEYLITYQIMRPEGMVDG
In words: TNKS2 Assay B (auto-parsylation, [3H]-NAD+ SPA). It is filed as biochemical. The conditions noted are these: 6 nM TNKS2, auto-parsylation, over night at room temperature.

Assay [1] concerns wildtype Wnt signaling cascade. In words: HEK293 TOP assay (Super TopFlash luciferase reporter, Wnt-3a stimulated). The class given is cell-based. The conditions noted are these: Homo sapiens, HEK293, 16 h, HEK293 TOP reporter cells, Wnt3a at EC50, 16 hours. In outline: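 Compound series (50 μM down to 15 nM, 3.16-fold) diluted from DMSO 50-fold into CAFTY buffer, pH 7.4, 2 mM Ca^2+, 0.01% BSA, applied to Wnt-3a-stimulated HEK293 TopFlash and FOP reporter lines in parallel. Cells seeded 10000/well 24 h before; luciferase signal measured.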

As to `CNC(=O)c1nc[nH]c1C(=O)N[C@H]1CC[C@H](C(=O)N(CCO)c2ccc(F)cc2Cl)CC1` [Example 157, N^5-{trans-4-[(2-chloro-4-fluorophenyl)(2-hydroxyethyl)carbamoyl]cyclohexyl}-N^4-methyl-1H-imidazole-4,5-dicarboxamide], the IC50 (commonly the concentration at which inhibition is half-maximal) is 280 nM against TNKS2 and 8300 nM in assay [1].

For the molecule `CC1CCN(CCNC(=O)c2nc[nH]c2C(=O)N[C@H]2CC[C@@]3(CCN(c4ccc(F)cc4Cl)C3=O)CC2)CC1` [Example 160, N^5-[(trans)-2-(2-chloro-4-fluorophenyl)-1-oxo-2-azaspiro[4.5]dec-8-yl]-N^4-[2-(4-methylpiperidin-1-yl)ethyl]-1H-imidazole-4,5-dicarboxamide], the IC50 against TNKS2 came to 3.4 nM; in assay [1] it was 13 nM.

With `O=C(NCCN1CCCCC1)c1nc[nH]c1C(=O)N[C@H]1CC[C@@]2(CCN(c3ccc(F)cc3Cl)C2=O)CC1` [Example 161, N^5-[(trans)-2-(2-chloro-4-fluorophenyl)-1-oxo-2-azaspiro[4.5]dec-8-yl]-N^4-[2-(piperidin-1-yl)ethyl]-1H-imidazole-4,5-dicarboxamide], the IC50 at TNKS2 was 1.6 nM; in assay [1], 55 nM.

As to `CC(C)NC(=O)c1nc[nH]c1C(=O)N[C@H]1CC[C@@]2(CCN(c3ccc(F)cc3Cl)C2=O)CC1` [Example 162, N^5-[(trans)-2-(2-chloro-4-fluorophenyl)-1-oxo-2-azaspiro[4.5]dec-8-yl]-N^4-isopropyl-1H-imidazole-4,5-dicarboxamide], the figures for the IC50 (against TNKS2; in assay [1]) were 8.2 nM and 9.4 nM, respectively.

`COCCNC(=O)c1nc[nH]c1C(=O)N[C@H]1CC[C@@]2(CCN(c3ccc(F)cc3Cl)C2=O)CC1` [Example 163, N^5-[(trans)-2-(2-chloro-4-fluorophenyl)-1-oxo-2-azaspiro[4.5]dec-8-yl]-N^4-(2-methoxyethyl)-1H-imidazole-4,5-dicarboxamide]: the results for the IC50 (against TNKS2; in assay [1]) were 5.9 nM and 2.4 nM, respectively.

Regarding `O=C(NC1CC1)c1nc[nH]c1C(=O)N[C@H]1CC[C@@]2(CCN(c3ccc(F)cc3Cl)C2=O)CC1` [Example 165, N^5-[(trans)-2-(2-chloro-4-fluorophenyl)-1-oxo-2-azaspiro[4.5]dec-8-yl]-N^4-cyclopropyl-1H-imidazole-4,5-dicarboxamide], the figures for the IC50 (against TNKS2; in assay [1]) were 6.3 nM and 3.8 nM, respectively.

For `O=C(N[C@H]1CC[C@@]2(CCN(c3ccc(F)cc3Cl)C2=O)CC1)c1[nH]cnc1C(=O)N1CC(F)C1` [Example 166, N-[(trans)-2-(2-chloro-4-fluorophenyl)-1-oxo-2-azaspiro[4.5]dec-8-yl]-4-[(3-fluoroazetidin-1-yl)carbonyl]-1H-imidazole-5-carboxamide], the IC50 at TNKS2 was found to be 2.6 nM; in assay [1] it was 0.69 nM.

(Values after US20180148418A1, “AMIDO-SUBSTITUTED CYCLOHEXANE DERIVATIVES” (Bayer Pharma Aktiengesellschaft, priority 2015, published 2018).)
